Measured values: patent US8236984B2, “Compound and use thereof in the treatment of amyloidosis” (Pentraxin Therapeutics Ltd., priority 2007, dated 2012)
“Also recorded” adds a separate entry of the source.

Legend:
[1] = target: T1, transthyretin (Homo sapiens, UniProt P02766); experiment: Isothermal titration calorimetry of transthyretin-ligand binding; conditions: ITC, Tris-NaCl pH 8.0, 2% DMSO, 37° C.
T1 construct: Native tetrameric transthyretin was purified from fractionated human plasma; from tissue; host or cells: human plasma
Procedure: 3.3.3 Isothermal titration calorimetry (itc) of transthyretin-mds84 ligand binding: Thermodynamic parameters of transthyretin-mds84 ligand binding were measured directly by isothermal titration calorimetry (VP-ITC, MicroCal LLC, Milton Keynes, UK). An initial injection of 1 μl of mds84 at 0.348 mM was made into transthyretin at a final concentration of 0.029 mM tetramer, followed, at 240 sec intervals, by 35 successive 8 μl injections. The diluent was Tris-NaCl pH 8.0 with 2% (v/v) DMSO. The sample cell was stirred at 310 rpm and cell contents were maintained at 37° C. After correction for volume displacement and plotting against the molar ratio of injected ligand to transthyretin tetramer, integration of the raw thermogram (FIG. 5, upper graph) yielded a binding isotherm (FIG. 5, lower graph) that was best fitted (determined by χ^2 analysis) to a model with a single set of identical sites by non-linear least squares analysis in ORIGIN v7.0 (MicroCal LLC).

[2] = target: L55P variant transthyretin (Homo sapiens, UniProt P02766, L75P); experiment: Differential scanning calorimetry of transthyretin with ligand; type: binding; conditions: five fold molar excess of ligand
[3] = Solubility as noted for calorimetry; type: physicochemical; conditions: in words, reason ITC could not be performed
[4] = target: T2, wild type transthyretin (Homo sapiens, UniProt P02766); experiment: Mass spectrometric analysis of ligand dissociation under increasing cone voltage; type: binding; design: made in house
Excerpt: (§1) 4.3. Mass spectrometric analysis of dissociation of 4ajm15 from wild type and amyloidogenic variant transthyretin. ESMS spectra were acquired under increasing cone voltage conditions to induce stepwise dissociation of the ligand from wild type transthyretin and amyloidogenic variants V30M and L55P transthyretin. As the cone voltage increases splitting becomes apparent in the tetramer peaks, corresponding to apo (protein alone) and holo (protein+ligand) transthyretin as ligand begins to dissociate.
(§2) L55P transthyretin and [^15N, ^13C] wild type transthyretin in a 2 fold excess of 4ajm15. […] In spectrum β the onset of 4ajm15 dissociation from wild type tetramer is observed (a) while no ligand dissociation is observed from L55P transthyretin. Dissociation from wild type transthyretin progresses with increasing collisional energy in spectrum γ, but it is not until spectrum δ, where approximately 50% of the wild type is apo, that ligand dissociation from L55P transthyretin is observed (a).
V30M transthyretin and [^15N, ^13C] wild type transthyretin in a 2 fold excess of ligand. In A, at the onset of 4ajm15 dissociation (spectrum β) the peak height corresponding to apo V30M transthyretin is lower than that for wild type (labelled a and a respectively) for each charge state. At high energy level (γ), ligand dissociation from wild type is complete while a proportion of […] V30M remains (h). […]

[5] = target: T3, L55P transthyretin (Homo sapiens, UniProt P02766, L75P); experiment: as above; type: binding; conditions: equimolar 4.4 μM with wild type, 2 fold excess of ligand
T3 construct: made in house
Excerpt: as §1, §2

[6] = target: T2, wild type transthyretin; experiment: Mass spectrometric analysis of subunit exchange; type: biochemical; design: made in house; conditions: 4.4 μM labelled proteins, 2-fold molar excess of ligand, room temperature and 4° C.
Procedure: (§3) 4.2 Mass spectrometric analysis of subunit exchange. Recombinant wild type, L55P and V30M transthyretin variants were biosynthetically labelled with isotopes [^15N] and [^15N, ^13C] as previously described (Keetch C A et al, 2005). Immediately prior to analysis, proteins were buffer exchanged into 20 mM ammonium acetate, pH 7.0 using Micro Biospin columns (Bio-Rad, UK). The subunit composition of transthyretin was monitored as a function of time by incubating an equimolar solution (4.4 μM) of [^15N] and [^15N, ^13C] labelled proteins in the presence of 2-fold molar excess of 4ajm15 in DMSO or 2.5% DMSO alone as a control. Each experiment was carried out in triplicate at room temperature and at 4° C. as well, since it is known that subunit exchange is accelerated at low temperatures. Nanoflow ESMS was performed on a QToF2 instrument (Waters/Micromass UK, Ltd.) modified for high mass operation (Sobott et al, (2002)) and calibrated externally using caesium iodide (100 mg/ml). Each solution, 1.5 μl, was electrosprayed from gold coated borosilicate capillaries prepared in-house as described (Nettleton E J, et al, 1998). […]

[7] = target: T4, transthyretin Tyr77 (Homo sapiens, UniProt P02766, S97Y); experiment: Displacement of 125I-T4 from transthyretin in whole serum; type: binding; conditions: whole serum of heterozygous subjects, mean
T4 construct: The displacement of T4 from transthyretin in whole serum; from tissue; host or cells: whole serum of heterozygous carriers
Excerpt: (§4) 3.2.3.2. Quantitative studies in serum. […] The immunoprecipitate was recovered by centrifugation, washed twice with 0.1 M Tris, 0.1 M NaCl, pH 8.0 and counted.

[8] = target: transthyretin Ile122 (Homo sapiens, UniProt P02766); experiment: as above; type: binding; conditions: read-out: IC50 for displacement of T4 from transthyretin Ile122 in serum; whole serum of heterozygous subjects, mean
Excerpt: as §4

[9] = target: transthyretin Ala60 (Homo sapiens, UniProt P02766); experiment: as above; type: binding; conditions: read-out: IC50 for displacement of T4 from transthyretin Ala60 in serum; whole serum of heterozygous subjects, mean
Excerpt: as §4

[10] = target: transthyretin Met30 (Homo sapiens, UniProt P02766); experiment: as above; type: binding; conditions: read-out: IC50 for displacement of T4 from transthyretin Met30 in serum; whole serum of heterozygous subjects, mean
Excerpt: as §4

[11] = target: T5, V30M transthyretin (Homo sapiens, UniProt P02766, V50M); experiment: Mass spectrometric analysis of subunit exchange; type: biochemical; conditions: 2-fold molar excess of ligand, data not shown
T5 construct: made in house
Procedure: as §3

| enthalpy (ΔH) [1] | Kd ([1]; 0.029 mM tetramer, read-out: dissociation constant (Kd)) | Tm of L55P variant transthyretin with the ligand [2] | increase in Tm of L55P variant transthyretin [2] | peak height of apo wild type transthyretin at onset of dissociation (spectrum β) ([4]; equimolar 4.4 μM with V30M, 2 fold excess of ligand) | proportion of wild type that is apo when dissociation from L55P is first observed (spectrum δ) [5] | IC50 [7] | IC50 [8] | IC50 [9] | IC50 [10] | subunit exchange of V30M transthyretin [11] | Structure (SMILES) | solubility [3] | relative binding avidities for ligand among transthyretin forms ([4]; wild type versus V30M and L55P, increasing cone voltage) | dissociation of ligand from L55P transthyretin [5] | subunit exchange of wild type transthyretin [6] |
| --- | --- | --- | --- | --- | --- | --- | --- | --- | --- | --- | --- | --- | --- | --- | --- |
| -33.3 kJ/mol | 0.505 µM | 98.3 °C | 5.9 °C |  |  |  |  |  |  |  | O=C(O)c1ccccc1Nc1cc(Cl)c(OCCCCCCCOc2c(Cl)cc(Nc3ccccc3C(=O)O)cc2Cl)c(Cl)c1 [mds84, 2,2′-(4,4′-(heptane-1,7-diylbis(oxy))bis(3,5-dichloro-4,1-phenylene))bis(azanediyl)dibenzoic acid] |  |  |  |  |
|  |  |  |  | ~75% | approximately 50% | 26.2 µM | 29.4 µM | 26.5 µM | 61.6 µM | Exactly the same effect | O=C(O)c1ccccc1Nc1cc(Cl)c(OCCCCCCCCCCCOc2c(Cl)cc(Nc3ccccc3C(=O)O)cc2Cl)c(Cl)c1 [4ajm15, 2,2′-(4,4′-(undecane-1,11-diylbis(oxy))bis(3,5-dichloro-4,1-phenylene))bis(azanediyl)dibenzoic acid] | limited solubility; also recorded: too insoluble | wild type transthyretin<V30M transthyretin<L55P transthyretin | only at higher collisional energy than wild type | prevents any subunit exchange; also recorded: almost complete absence of exchange after 7 days |
